Source: paper PMC6154339, “Synthesis, Characterization, Antimicrobial and Antiproliferative Activity Evaluation of Cu(II), Co(II), Zn(II), Ni(II) and Pt(II) Complexes with Isoniazid-Derived Compound” (Molecules : A Journal of Synthetic Chemistry and Natural …, 2017)
Values after ≈ are worked out from the molar mass of the structure shown. Like-named read-outs stand apart in the source and are kept apart here.

Experiments:
[1] = Solubility in compendial aqueous media; type: physicochemical; details: 37 °C, mean ± standard deviation, n = 3; for solubility at 30 min: kinetic from dmso stock; for solubility in compendial media: 30 min
Protocol: Solubility assessment was conducted in compendial aqueous solutions prepared according to United States Pharmacopoeia USP39/NF34): hydrochloric acid 0.1 N pH 1.2, acetate buffer pH 4.5 and phosphate buffer 6.8. These buffer systems are routinely used for screening of drug dissolution testing and they simulate the pH values of proximal gastrointestinal regions. The standard samples were prepared by diluting the stock solution of 80 µg/mL in dimethyl sulfoxide (with 0.2% pyridine, v/v) with corresponding media. The reagents were of analytical grade and used as received.
The assay was performed using a SpectraMax Plus 84 Plate reader reader (Sunnyvale, CA, USA), Molecular Devices LLC (US), equiped with SoftMax software version 6.4.2 (Sunnyvale, CA, USA). Separate plates were loaded with standard solutions in nine concentrations (0.2 to 80 µg/mL). For evaluation of the aqueous solubility, the samples were prepared in triplicate by adding 10 µL of the stock solution to the wells loaded with 190 µL of each buffer, using MultiScreen HTS plates (PCF, code MSSLBPC, Merck Millipore, Darmstadt, Germany). After 30 minutes of incubation at 37 ± 0.5 °C under agitation (250 rpm, IKA KS 4000 ic control, IKA, Staufen, Germany), the plates were filtrated under vacuum using a Vac-Man 96 Vacuum manifold (Promega Corporation, Madison, WI, USA). The solutions were collected in V-bottom polypropylene 96-well microplates (Greiner Bio-One, Kremsmünster, Austria). Volumes of 100 µL were transferred to UV-Star 96-well microplate with flat bottom (Chimney well, Grained Bio-One) and diluted by addition of 100 µL of the corresponding medium. The absorbance corresponding to each well was determined at fixed wavelengths: 280, 300, 320, 340, 360 and 800 nm. The reduced value of absorbance, calculated by the sum of the values recorded at the six wavelengths, were used for the calibration curve and subsequent determination of concentration in each solubility sample.

[2] = test system: A375 human melanoma cell line; assay: Alamar blue cell viability assay; type: cell-based; details: relative to untreated control; for Viability %: 48 h treatment, 10 µM
Protocol: (§1) Compounds HL, 1, 5, 6 and 8 were dissolved in dimethyl sulfoxide (DMSO; Sigma-Aldrich, Ayrshire, UK) and stored at 2–8 °C. Compounds 2, 3, 4 and 7 were dissolved in pyridine (Fluka, Munich, Germany). A stock solution of 10 mM in the proper solvents was prepared; as for the final concentration (10 µM), successive dilution of the stock solution with culture medium was made.
(§2) The breast cancer cell lines were cultured as follow: MCF-7 human breast cancer cell line (ATCC, Rockville, MD, USA) was cultured in EMEM (Sigma Aldrich, Munich, Germany) supplemented with 10% FCS (fetal bovine serum, PromoCell, Heidelberg, Germany), 1% penicillin-streptomycin (Pen/Strep, 10,000 IU/mL; PromoCell, Heidelberg, Germany), 1% nonessential amino acids and 1% glutamine (PromoCell, Heidelberg, Germany). SKBR-3 human breast cancer cell line was cultured in McCoy’s 5a Medium Modified (Sigma Aldrich, Munich, Germany) supplemented with 10% FCS (fetal bovine serum, PromoCell, Heidelberg, Germany), 1% penicillin-streptomycin (Pen/Strep, 10,000 IU/mL; PromoCell, Heidelberg, Germany). A375 human melanoma cell line was cultured in DMEM containing 15% FCS (fetal bovine serum, PromoCell, Heidelberg, Germany) and 1% penicillin-streptomycin (Pen/Strep, 10,000 IU/mL; PromoCell, Heidelberg, Germany). Cells were maintained at an atmosphere of 5% CO2 at 37 °C. NCI-H1573 lung adenocarcinoma cell line was cultured in RPMI-1640 Medium (ATCC, Rockville, MD, USA) supplemented with 10% FCS (fetal bovine serum, PromoCell, Heidelberg, Germany), 1% penicillin-streptomycin (Pen/Strep, 10,000 IU/mL; PromoCell, Heidelberg, Germany).
(§3) All tested cell lines were seeded onto a 96-well microplate ([…]) and left overnight to attach to the bottom of the well. After 24 h, the amount of 150 μL of the tested substances dissolved into the culture medium was added and cells were incubated for 48 h. After the incubation period, a volume of 15 μL of the Alamar blue (BioSource, Camarillo, CA, USA) solution was added. After another 10 h of incubation at 37 °C, the samples were spectrophotometrically analyzed using a microplate reader. The wave lengths used were 570 nm and 600 nm, respectively. Wells with untreated cells were used as controls. The highest concentration of DMSO and pyridine (0.1%) used to prepare stock solutions was also tested, in order to identify the solvent activity. All measurements were performed in triplicate and data were presented as mean ± standard deviation.

[3] = test system: MCF-7 human breast cancer cell line; assay: Alamar blue cell viability assay; type: cell-based; details: 48 h treatment, relative to untreated control; for Viability %: 10 µM
Protocol: as §1, §2, §3

[4] = test system: NCI-H1573 lung adenocarcinoma cell line; assay: Alamar blue cell viability assay; type: cell-based; details: 48 h treatment, relative to untreated control; for Viability %: 10 µM
Protocol: as §1, §2, §3

[5] = test system: SKBR-3 human breast cancer cell line; assay: Alamar blue cell viability assay; type: cell-based; details: relative to untreated control; for Viability %: 48 h treatment, 10 µM
Protocol: as §1, §2, §3

in vivo = details: Daphnia magna
[6] = test system: Escherichia coli, ATCC 25922; assay: Antibacterial activity, serial dilutions in liquid broth (MIC/MBC); type: cell-based; details: E. coli (G −)
Source text: (§4) All synthesized complexes and the ligand were screened for their in vitro antibacterial activity against Gram-positive bacteria (Staphylococcus aureus), Gram-negative bacteria (Escherichia coli, Klebsiella pneumoniae) and antifungal activity (Candida albicans) strains using the paper disc diffusion technique (for the qualitative determination) and the serial dilutions in liquid broth method (for determination of MIC). Furacillinum and nystatine were used as standard drugs.
(§5) The antibacterial activity of complexes and also of their prototype furacilin has been determined under liquid nutritive environment (2% of peptonate bullion (pH 7.0)) using the successive dilutions method. Escherichia coli, Klebsiella pneumoniae, and Staphylococcus aureus stems were used as reference culture for the in vitro experiment. The dissolution of studied substances in dimethylformamide, microorganism cultivation, suspension obtaining, determination of minimal inhibition concentration (MIC) and minimal bactericide concentration (MBC) have been carried out according to the method previously reported.

[7] = test system: Klebsiella pneumoniae, ATCC 31,488; assay: as above; type: cell-based; details: K. pneumoniae (G −)
Source text: as §4, §5

[8] = test system: Staphylococcus aureus, ATCC 25923; assay: as above; type: cell-based; details: S. aureus (G +)
Source text: as §4, §5

Candida albicans = assay: Antifungal (antimycotic) activity, liquid Sabouraud medium (MIC/MBC); type: cell-based; details: C. albicans
Source text: as §4
Antimycotic properties of the complexes were investigated in vitro on laboratory stem Candida albicans. The activity has been determined in a liquid Sabouraud nutritive environment (pH 6.8). The inoculates were prepared from fungi stems which were harvested over 3–7 days. Their concentration in suspension is (2–4) × 10^6 colonies form unities in milliliter. Sowings for levures and micelles were incubated at 37 °C during 7 and 14 days, respectively.

[9] = Qualitative solubility in organic solvents; type: physicochemical
[10] = Hydrochloric Acid 0.1 N (pH = 1.2)

## COc1cccc(/C=N/NC(=O)c2ccncc2)c1O [HL, N-isonicotinoyl-N′-(3-metoxy-2 hydroxybenzaldehyde)-hydrazone]
[1]; aqueous buffer, Acetate Buffer (pH = 4.5)
  solubility at 30 min: 3.49 ± 0.41 µg/mL (≈ 12.9 µM)
[1]; aqueous buffer, Phosphate Buffer (pH = 6.8)
  solubility at 30 min: 0.25 ± 0.02 µg/mL (≈ 0.922 µM)
[1]; simulated gastric fluid, Hydrochloric Acid 0.1 N (pH = 1.2)
  solubility at 30 min: 2.02 ± 0.02 µg/mL (≈ 7.45 µM)
[2]; Homo sapiens, A-375, 48 h treatment
  viability at 10 µM: 82.4%
[3]; Homo sapiens, MCF7, 48 h
  viability at 10 µM: 21.5%
[4]; Homo sapiens, NCI-H1573, 48 h
  viability at 10 µM: 29.2%
[5]; Homo sapiens, SK-BR-3, 48 h treatment
  viability at 10 µM: 76.3%
In vivo; LC50, incubation period 24 h
  LC50: 53.1 µM
In vivo; LC50, incubation period 48 h
  LC50: 52.6 µM

## CC(=O)[O-].COc1cccc(C=NNC(=O)c2ccncc2)c1[O-].[Cu+2] [complex 2, [Cu(L)(CH3COO)]]
[1]; Acetate Buffer (pH = 4.5)
  solubility in compendial media: 1.27 ± 0.06 µg/mL
[1]; [10]
  solubility in compendial media: 1.75 ± 0.54 µg/mL
[1]; Phosphate Buffer (pH = 6.8)
  solubility in compendial media: <0.2 µg/mL
[6]
  MBC: 500 µg/mL
  MIC: 500 µg/mL
[7]
  MBC: 500 µg/mL
  MIC: 500 µg/mL
[8]
  MBC: 0.015 µg/mL
  MIC: 0.015 µg/mL
Candida albicans
  MBC: 250 µg/mL
  MIC: 125 µg/mL
[2]
  Viability %: 0.73%
[3]
  Viability %: 2.10%
[4]
  Viability %: 7.22%
[5]
  Viability %: 6.88%
[9]
  solubility in organic solvents (qualitative): soluble in pyridine and is partially soluble in ethanol, methanol, acetonitrile, acetone, DMF and DMSO
Daphnia magna; incubation period 24 h
  LC50: 69.6 µM
Daphnia magna; incubation period 48 h
  LC50: 13.1 µM

## COc1cccc(C=NNC(=O)c2ccncc2)c1[O-].O.O=[N+]([O-])[O-].[Cu+2] [complex 3, [Cu(L)(NO3)]·H2O]
[1]; Acetate Buffer (pH = 4.5)
  solubility in compendial media: 1.69 ± 0.18 µg/mL
[1]; [10]
  solubility in compendial media: 0.92 ± 0.11 µg/mL
[1]; Phosphate Buffer (pH = 6.8)
  solubility in compendial media: <0.2 µg/mL
[6]
  MBC: 500 µg/mL
  MIC: 500 µg/mL
[7]
  MBC: 500 µg/mL
  MIC: 500 µg/mL
[8]
  MBC: 0.15 µg/mL
  MIC: 0.07 µg/mL
Candida albicans
  MBC: 3 µg/mL
  MIC: 1.5 µg/mL
[2]
  Viability %: 1.59%
[3]
  Viability %: 2.44%
[4]
  Viability %: 12.14%
[5]
  Viability %: 62.65%
[9]
  solubility in organic solvents (qualitative): soluble in pyridine and is partially soluble in ethanol, methanol, acetonitrile, acetone, DMF and DMSO
Daphnia magna; incubation period 24 h
  LC50: 317 µM
Daphnia magna; incubation period 48 h
  LC50: 5.61 µM

## COc1cccc(C=NNC(=O)c2ccncc2)c1[O-].COc1cccc(C=NNC(=O)c2ccncc2)c1[O-].[Co+2] [complex 5, [Co(L)2]]
[1]; Acetate Buffer (pH = 4.5)
  solubility in compendial media: 1.62 ± 0.72 µg/mL
[1]; [10]
  solubility in compendial media: <0.2 µg/mL
[1]; Phosphate Buffer (pH = 6.8)
  solubility in compendial media: <0.2 µg/mL
[6]
  MBC: 500 µg/mL
  MIC: 250 µg/mL
[7]
  MBC: 500 µg/mL
  MIC: 500 µg/mL
[8]
  MBC: 0.7 µg/mL
  MIC: 0.7 µg/mL
Candida albicans
  MBC: 250 µg/mL
  MIC: 125 µg/mL
[2]
  Viability %: 88.96%
[3]
  Viability %: 55.61%
[4]
  Viability %: 89.79%
[5]
  Viability %: 76.68%
[9]
  solubility in organic solvents (qualitative): soluble in pyridine, DMF and DMSO, and is partially soluble in ethanol, methanol, acetonitrile, acetone
Daphnia magna; incubation period 24 h
  LC50: 278 µM
Daphnia magna; incubation period 48 h
  LC50: 2.38 µM
